Test system: A498 complex spheroids with HUVEC/MSC, growth
Assay: Anticancer human tumor A498 cell line growth inhibition [AhR];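 also: seven day exposure starting three days after spheroid seeding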;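 as to viability, T/C: luminescence signal used as a surrogate for viable cells; luminescence viability scaled so 100% equals DMSO vehicle wells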
Settings: for IC50: curve of first compound; for viability, T/C: stronger effect = lower value
In short: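 Complex tumor spheroids co-cultured with HUVEC and human MSC stroma; AhR antagonists tested in combination with standard-of-care and investigational agents. Top concentration at or near clinical Cmax (else 10 microM), half-log dilutions; growth expressed as percent test/control.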

[1] = second compound 0.1 µM, first compound 0.0316 µM
[2] = second compound 0.1 µM, first compound 0.1 µM
[3] = second compound 0.1 µM, first compound 0.316 µM
[4] = second compound 0.1 µM, first compound 1 µM
[5] = second compound 0.316 µM, first compound 0.0316 µM
[6] = second compound 0.316 µM, first compound 0.1 µM
[7] = second compound 0.316 µM, first compound 0.316 µM
[8] = second compound 0.316 µM, first compound 1 µM
[9] = second compound 1 µM, first compound 0.0316 µM
[10] = second compound 1 µM, first compound 0.1 µM
[11] = second compound 1 µM, first compound 0.316 µM
[12] = second compound 1 µM, first compound 1 µM
[13] = second compound 3.16 µM, first compound 0.0316 µM
[14] = second compound 3.16 µM, first compound 0.1 µM
[15] = second compound 3.16 µM, first compound 0.316 µM
[16] = second compound 3.16 µM, first compound 1 µM
[17] = second compound 10 µM, first compound 0.0316 µM
[18] = second compound 10 µM, first compound 0.1 µM
[19] = second compound 10 µM, first compound 0.316 µM
[20] = second compound 10 µM, first compound 1 µM

SMILES	IC50 (second compound 0.1 µM) [nM]	IC50 (second compound 0.316 µM) [nM]	IC50 (second compound 1 µM) [nM]	IC50 (second compound 3.16 µM) [nM]	IC50 (second compound 10 µM) [nM]	viability, T/C [1] [%]	viability, T/C [2] [%]	viability, T/C [3] [%]	viability, T/C [4] [%]	viability, T/C [5] [%]	viability, T/C [6] [%]	viability, T/C [7] [%]	viability, T/C [8] [%]	viability, T/C [9] [%]	viability, T/C [10] [%]	viability, T/C [11] [%]	viability, T/C [12] [%]	viability, T/C [13] [%]	viability, T/C [14] [%]	viability, T/C [15] [%]	also measured
CC1COCCN1c1cc(-c2ccnn2C)c2ccnc(-c3ccn[nH]3)c2n1 (stereo not given) + CC(CO)NC(=O)c1cc(-c2ccc(Cl)cc2)nn(-c2cnn(C)c2)c1=O	77.7	78.8	72.7	62	41.7	82.3	40.5	20.1	13	76	44.1	17.1	14.3	78.6	39.1	18.4	15.7	70.7	34.9	21.4	viability, T/C (second compound 0.1 µM, first compound 0.00316 µM): 96.4%; viability, T/C (second compound 0.1 µM, first compound 0.01 µM): 103%; viability, T/C (second compound 0.316 µM, first compound 0.00316 µM): 90%; viability, T/C (second compound 0.316 µM, first compound 0.01 µM): 104%; viability, T/C (second compound 1 µM, first compound 0.00316 µM): 93.6%; viability, T/C (second compound 1 µM, first compound 0.01 µM): 92.6%; viability, T/C (second compound 3.16 µM, first compound 0.00316 µM): 88.6%; viability, T/C (second compound 3.16 µM, first compound 0.01 µM): 84.9%; viability, T/C [16]: 15.4%; viability, T/C (second compound 10 µM, first compound 0.00316 µM): 65.7%; viability, T/C (second compound 10 µM, first compound 0.01 µM): 68.5%; viability, T/C [17]: 55.1%; viability, T/C [18]: 31.6%; viability, T/C [19]: 20.2%; viability, T/C [20]: 14%
CC1COCCN1c1cc(C2(S(C)(=N)=O)CC2)nc(-c2ccnc3[nH]ccc23)n1 (stereo not given) + CC(CO)NC(=O)c1cc(-c2ccc(Cl)cc2)nn(-c2cnn(C)c2)c1=O	1770	1640	1280	1190	784	96.6	94.9	85.2	66	88.7	89.6	84	65.1	84.3	86.8	87	53.5	80.6	81.8	78.5	viability, T/C (second compound 0.1 µM, first compound 3.16 µM): 34.2%; viability, T/C (second compound 0.1 µM, first compound 10 µM): 18.2%; viability, T/C (second compound 0.316 µM, first compound 3.16 µM): 30.2%; viability, T/C (second compound 0.316 µM, first compound 10 µM): 19.7%; viability, T/C (second compound 1 µM, first compound 3.16 µM): 30.6%; viability, T/C (second compound 1 µM, first compound 10 µM): 17.1%; viability, T/C [16]: 52.1%; viability, T/C (second compound 3.16 µM, first compound 3.16 µM): 29.1%; viability, T/C (second compound 3.16 µM, first compound 10 µM): 16.5%; viability, T/C [17]: 70.1%; viability, T/C [18]: 65.7%; viability, T/C [19]: 62.8%; viability, T/C [20]: 46.9%; viability, T/C (second compound 10 µM, first compound 3.16 µM): 25.8%; viability, T/C (second compound 10 µM, first compound 10 µM): 17.7%
